The nature of assay [1]: cytotoxicity in A549 cells, dose response, cytotoxicity control, cell-based, CellTiter-Glo luminescence, dry powder (AID 743483). Particulars: A549 viability, CellTiter-Glo ATP luminescence, 72 h. On the technique in general: Cellular ATP, detected with luciferase, serves as a proxy for viable cell number.
Assay [2] deals with A549 viability, CellTiter-Glo ATP luminescence, 72 h. The assay is described as above.

Each structure is given as a SMILES string. Active and inactive are the calls of the source.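 Rule for the calls: active = cell killing, with a fitted active concentration at or below twice the top valid dose tested; inconclusive = flat partial cell loss, or a poor curve fit; inactive = effect in the rising direction, plus the rest.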

As to `C[C@H](CO)N1C[C@H](C)[C@H](CN(C)C(=O)Nc2ccc(F)cc2)OCCCC[C@H](C)Oc2ccc(NC(=O)C3CCCCCC3)cc2C1=O`, the activity change, negative = cytotoxicity in assay [1] (at 26 µM (top of the series)) was -13.4% (inactive).

Turning to `C[C@H](CO)N1C[C@H](C)[C@H](CN(C)C(=O)Nc2ccccc2F)OCCCC[C@H](C)Oc2ccc(NC(=O)C3CCCCC3)cc2C1=O`, in assay [1] (at 26 µM (top of the series)), the activity change, negative = cytotoxicity was -18.7% (inactive). As usually defined, the IC50 is the concentration needed to halve the response being measured. Turning to `C[C@H]1CCCCO[C@@H](CN(C)S(=O)(=O)c2ccc(Cl)cc2)[C@@H](C)CN([C@@H](C)CO)C(=O)c2cc(NC(=O)NC3CCCCC3)ccc2O1`, the IC50 in assay [2] is 19.1 µM. On to `C[C@@H]1CCCCO[C@@H](CN(C)C(=O)Nc2cccc3ccccc23)[C@@H](C)CN([C@H](C)CO)C(=O)c2cc(NC(=O)C3CCCCC3)ccc2O1`, for which the activity change, negative = cytotoxicity in assay [1] (at 26 µM (top of the series)) is -24.4% (inactive). The same measure, in the same setting: next, `C[C@H](CO)N1C[C@H](C)[C@H](CN(C)C(=O)Nc2ccccc2)OCCCC[C@H](C)Oc2ccc(NC(=O)NC3CCCCC3)cc2C1=O`: -4.06% (inactive); `C[C@H](CO)N1C[C@H](C)[C@H](CN(C)C(=O)Nc2ccc(F)cc2)OCCCC[C@H](C)Oc2ccc(NC(=O)C3CCC3)cc2C1=O`: -1.54% (inactive). Still for that read-out and setting: with `C[C@H](CO)N1C[C@H](C)[C@H](CN(C)C(=O)Nc2ccc(F)cc2)OCCCC[C@H](C)Oc2ccc(NC(=O)C3CCCCC3)cc2C1=O` the figure was -8.92% (inactive); with `C[C@H](CO)N1C[C@H](C)[C@H](CN(C)C(=O)Nc2cccc3ccccc23)OCCCC[C@H](C)Oc2ccc(NC(=O)CCC(F)(F)F)cc2C1=O`, -6.54% (inactive); with `C[C@H](CO)N1C[C@H](C)[C@H](CN(C)C(=O)Nc2ccc3c(c2)OCO3)OCCCC[C@H](C)Oc2ccc(NC(=O)NC3CCCCC3)cc2C1=O`, -4.36% (inactive). For the compound `C[C@@H]1CCCCO[C@H](CN(C)C(=O)Nc2cccc3ccccc23)[C@H](C)CN([C@@H](C)CO)C(=O)c2cc(NC(=O)C3CCCCC3)ccc2O1`, the activity change, negative = cytotoxicity in assay [1] (at 26 µM (top of the series)) is -22.6% (inactive).

Regarding `COc1ccc(NC(=O)N(C)C[C@@H]2OCCCC[C@H](C)Oc3ccc(NC(=O)C4CCCCC4)cc3C(=O)N([C@H](C)CO)C[C@@H]2C)cc1`, the activity change, negative = cytotoxicity in assay [1] (at 26 µM (top of the series)) is -14.8% (inactive). Still for that read-out and setting: with `C[C@H](CO)N1C[C@H](C)[C@H](CN(C)C(=O)Nc2ccc3c(c2)OCO3)OCCCC[C@H](C)Oc2ccc(NC(=O)C3CCCCC3)cc2C1=O` the figure was -3.37% (inactive); with `C[C@H]1CCCCO[C@@H](CN(C)C(=O)Nc2ccccc2)[C@@H](C)CN([C@@H](C)CO)C(=O)c2cc(NC(=O)NC3CCCCC3)ccc2O1`, -3.65% (inactive). For the compound `C[C@H](CO)N1C[C@H](C)[C@H](CN(C)C(=O)Nc2ccc(F)cc2)OCCCC[C@H](C)Oc2ccc(NC(=O)C3CC3)cc2C1=O`, in assay [1] (at 26 µM (top of the series)), the activity change, negative = cytotoxicity is 2.37% (inactive). Turning to `C[C@H](CO)N1C[C@H](C)[C@H](CN(C)C(=O)Nc2ccccc2)OCCCC[C@H](C)Oc2ccc(NC(=O)CCC(F)(F)F)cc2C1=O`, the activity change, negative = cytotoxicity in assay [1] (at 12 µM (top of the series)) is 12.7% (inactive). `C[C@H](CO)N1C[C@H](C)[C@H](CN(C)C(=O)Nc2cccc3ccccc23)OCCCC[C@H](C)Oc2ccc(NC(=O)NC3CCCCC3)cc2C1=O`: the activity change, negative = cytotoxicity in assay [1] (at 26 µM (top of the series)) was -18.8% (inactive). On the same count and under the same terms, next, `C[C@H](CO)N1C[C@H](C)[C@H](CN(C)C(=O)Nc2ccccc2)OCCCC[C@H](C)Oc2ccc(NC(=O)Nc3ccccc3)cc2C1=O`: 3.79% (inactive). Still for that read-out and setting: next, `C[C@H](CO)N1C[C@H](C)[C@H](CN(C)C(=O)Nc2ccccc2)OCCCC[C@H](C)Oc2ccc(NC(=O)C3CCCCC3)cc2C1=O`: -8.81% (inactive); `C[C@H](CO)N1C[C@H](C)[C@H](CN(C)C(=O)Nc2ccccc2)OCCCC[C@H](C)Oc2ccc(NC(=O)Nc3ccc4c(c3)OCO4)cc2C1=O`: -21.2% (inactive); `C[C@H](CO)N1C[C@H](C)[C@H](CN(C)C(=O)Nc2ccc(F)cc2)OCCCC[C@H](C)Oc2ccc(NC(=O)Nc3ccccc3)cc2C1=O`: -4.11% (inactive).

As for `C[C@@H]1CN([C@@H](C)CO)C(=O)c2cc(NC(=O)C3CCCCC3)ccc2O[C@@H](C)CCCCO[C@@H]1CN(C)C(=O)Nc1cccc2ccccc12`, the activity change, negative = cytotoxicity in assay [1] (at 26 µM (top of the series)) was -22.9% (inactive). On the same count and under the same terms, next, `C[C@H](CO)N1C[C@H](C)[C@H](CN(C)C(=O)Nc2ccc(F)cc2)OCCCC[C@H](C)Oc2ccc(NC(=O)C3CCOCC3)cc2C1=O`: 4.42% (inactive). The same measure, in the same setting: next, `C[C@H](CO)N1C[C@H](C)[C@H](CN(C)C(=O)Nc2ccc3ccccc3c2)OCCCC[C@H](C)Oc2ccc(NC(=O)C3CCCCC3)cc2C1=O`: 2.71% (inactive). On the same count and under the same terms, next, `C[C@@H]1CCCCO[C@H](CN(C)C(=O)Nc2cccc3ccccc23)[C@@H](C)CN([C@@H](C)CO)C(=O)c2cc(NC(=O)C3CCCCC3)ccc2O1`: -19.7% (inactive). For the compound `C[C@H](CO)N1C[C@H](C)[C@H](CN(C)C(=O)Nc2ccc(F)cc2)OCCCC[C@H](C)Oc2ccc(NC(=O)C3CCCC3)cc2C1=O`, the activity change, negative = cytotoxicity in assay [1] (at 12 µM (top of the series)) was 12.9% (inactive). On to `C[C@H](CO)N1C[C@H](C)[C@H](CN(C)C(=O)Nc2ccc(C(F)(F)F)cc2)OCCCC[C@H](C)Oc2ccc(NC(=O)NC3CCCCC3)cc2C1=O`, for which the activity change, negative = cytotoxicity in assay [1] (at 26 µM (top of the series)) was -9.21% (inactive). On the same count and under the same terms, with `C[C@H]1CCCCO[C@@H](CN(C)C(=O)Nc2ccc(F)cc2)[C@@H](C)CN([C@@H](C)CO)C(=O)c2cc(NC(=O)C3CCCCC3)ccc2O1` the figure was -21.4% (inactive); with `C[C@H](CO)N1C[C@H](C)[C@@H](CN(C)C(=O)Nc2cccc3ccccc23)OCCCC[C@H](C)Oc2ccc(NC(=O)C3CCCCC3)cc2C1=O`, -15.8% (inactive). Still for that read-out and setting: with `CC(=O)Nc1ccc2c(c1)C(=O)N([C@H](C)CO)C[C@H](C)[C@H](CN(C)C(=O)Nc1ccc(F)cc1)OCCCC[C@H](C)O2` the figure was -6.53% (inactive); with `C[C@H]1CCCCO[C@@H](CN(C)C(=O)Nc2ccc3c(c2)OCO3)[C@@H](C)CN([C@@H](C)CO)C(=O)c2cc(NC(=O)NC3CCCCC3)ccc2O1`, -15% (inactive); with `C[C@H](CO)N1C[C@H](C)[C@H](CN(C)C(=O)Nc2cccc3ccccc23)OCCCC[C@H](C)Oc2ccc(NC(=O)c3ccccc3)cc2C1=O`, -18.3% (inactive). The same measure, in the same setting: with `C[C@@H]1CCCCO[C@@H](CN(C)C(=O)Nc2cccc3ccccc23)[C@H](C)CN([C@H](C)CO)C(=O)c2cc(NC(=O)C3CCCCC3)ccc2O1` the figure was -11.3% (inactive); with `C[C@H](CO)N1C[C@H](C)[C@H](CN(C)C(=O)Nc2ccc(F)cc2)OCCCC[C@H](C)Oc2ccc(NC(=O)NC3CCCCC3)cc2C1=O`, -3.88% (inactive); with `CC(C)(C)c1ccc(-c2nc(-c3ccncc3)no2)cc1`, -8.72% (inactive). As to `C[C@@H]1CCCCO[C@H](CN(C)C(=O)Nc2cccc3ccccc23)[C@H](C)CN([C@H](C)CO)C(=O)c2cc(NC(=O)C3CCCCC3)ccc2O1`, the activity change, negative = cytotoxicity in assay [1] (at 26 µM (top of the series)) was -21.8% (inactive).

Regarding `C[C@H](CO)N1C[C@H](C)[C@H](CN(C)C(=O)Nc2ccc(F)cc2)OCCCC[C@H](C)Oc2ccc(NC(=O)Nc3ccc(F)cc3)cc2C1=O`, in assay [1] (at 26 µM (top of the series)), the activity change, negative = cytotoxicity was -13.3% (inactive). With `COc1ccc(S(=O)(=O)N(C)C[C@@H]2OCCCC[C@H](C)Oc3ccc(NS(=O)(=O)c4ccc(Cl)cc4)cc3C(=O)N([C@@H](C)CO)C[C@@H]2C)cc1`, the half-inhibitory concentration (IC50) in assay [2] was 22.1 µM.

For `Cc1ccc(NC(=O)N(C)C[C@@H]2OCCCC[C@H](C)Oc3ccc(NC(=O)C4CCCCC4)cc3C(=O)N([C@H](C)CO)C[C@@H]2C)cc1`, the activity change, negative = cytotoxicity in assay [1] (at 26 µM (top of the series)) is -2.73% (inactive). For the compound `C[C@@H]1CN([C@@H](C)CO)C(=O)c2cc(NC(=O)C3CCCCC3)ccc2O[C@@H](C)CCCCO[C@H]1CN(C)C(=O)Nc1cccc2ccccc12`, the IC50 in assay [2] was 6.41 µM.

Consider `C[C@H](CO)N1C[C@H](C)[C@H](CN(C)C(=O)Nc2cccc(F)c2)OCCCC[C@H](C)Oc2ccc(NC(=O)C3CCCCC3)cc2C1=O`, for which the activity change, negative = cytotoxicity in assay [1] (at 26 µM (top of the series)) was -12.5% (inactive). With `COc1ccc(NC(=O)N(C)C[C@@H]2OCCCC[C@H](C)Oc3ccc(NC(=O)NC4CCCCC4)cc3C(=O)N([C@H](C)CO)C[C@@H]2C)cc1`, the activity change, negative = cytotoxicity in assay [1] (at 26 µM (top of the series)) is 3.04% (inactive). Same read-out and setting: with `C[C@H](CO)N1C[C@H](C)[C@H](CN(C)C(=O)Nc2cccc3ccccc23)OCCCC[C@H](C)Oc2ccc(NC(=O)C3CCCCC3)cc2C1=O` the figure was -19% (inactive); with `C[C@@H]1CCCCO[C@@H](CN(C)C(=O)Nc2cccc3ccccc23)[C@H](C)CN([C@@H](C)CO)C(=O)c2cc(NC(=O)C3CCCCC3)ccc2O1`, -18.7% (inactive). For `C[C@@H]1CN([C@H](C)CO)C(=O)c2cc(NC(=O)C3CCCCC3)ccc2O[C@@H](C)CCCCO[C@H]1CN(C)C(=O)Nc1cccc2ccccc12`, in assay [2], the concentration for half-maximal inhibition (IC50) is 21.8 µM.

The values above are taken from PubChem BioAssay AID743483 (Broad Institute, 2014).
